Data published in patent publication US20150005281A1, “PYRIMIDINE-2,4-DIAMINE DERIVATIVES AS KINASE INHIBITORS” (Cellzome Limited, priority 2011, published 2015).

What was measured:
Format in all cases: binding
JAK1 = target: T1, JAK1 (Homo sapiens, UniProt P23458); test: Kinobeads assay with immunodetection, JAK1; details: for IC50: Kinobeads assay, mixed Molt4/Ramos lysate, read-out: Inhibition values (IC50) JAK1
T1 construct: endogenous in cells; host or cells: Molt4 (ATCC CRL-1582) and Ramos (ATCC CRL-1596) cells; mixed lysate 1:2
T1 sequence (P23458 whole entry): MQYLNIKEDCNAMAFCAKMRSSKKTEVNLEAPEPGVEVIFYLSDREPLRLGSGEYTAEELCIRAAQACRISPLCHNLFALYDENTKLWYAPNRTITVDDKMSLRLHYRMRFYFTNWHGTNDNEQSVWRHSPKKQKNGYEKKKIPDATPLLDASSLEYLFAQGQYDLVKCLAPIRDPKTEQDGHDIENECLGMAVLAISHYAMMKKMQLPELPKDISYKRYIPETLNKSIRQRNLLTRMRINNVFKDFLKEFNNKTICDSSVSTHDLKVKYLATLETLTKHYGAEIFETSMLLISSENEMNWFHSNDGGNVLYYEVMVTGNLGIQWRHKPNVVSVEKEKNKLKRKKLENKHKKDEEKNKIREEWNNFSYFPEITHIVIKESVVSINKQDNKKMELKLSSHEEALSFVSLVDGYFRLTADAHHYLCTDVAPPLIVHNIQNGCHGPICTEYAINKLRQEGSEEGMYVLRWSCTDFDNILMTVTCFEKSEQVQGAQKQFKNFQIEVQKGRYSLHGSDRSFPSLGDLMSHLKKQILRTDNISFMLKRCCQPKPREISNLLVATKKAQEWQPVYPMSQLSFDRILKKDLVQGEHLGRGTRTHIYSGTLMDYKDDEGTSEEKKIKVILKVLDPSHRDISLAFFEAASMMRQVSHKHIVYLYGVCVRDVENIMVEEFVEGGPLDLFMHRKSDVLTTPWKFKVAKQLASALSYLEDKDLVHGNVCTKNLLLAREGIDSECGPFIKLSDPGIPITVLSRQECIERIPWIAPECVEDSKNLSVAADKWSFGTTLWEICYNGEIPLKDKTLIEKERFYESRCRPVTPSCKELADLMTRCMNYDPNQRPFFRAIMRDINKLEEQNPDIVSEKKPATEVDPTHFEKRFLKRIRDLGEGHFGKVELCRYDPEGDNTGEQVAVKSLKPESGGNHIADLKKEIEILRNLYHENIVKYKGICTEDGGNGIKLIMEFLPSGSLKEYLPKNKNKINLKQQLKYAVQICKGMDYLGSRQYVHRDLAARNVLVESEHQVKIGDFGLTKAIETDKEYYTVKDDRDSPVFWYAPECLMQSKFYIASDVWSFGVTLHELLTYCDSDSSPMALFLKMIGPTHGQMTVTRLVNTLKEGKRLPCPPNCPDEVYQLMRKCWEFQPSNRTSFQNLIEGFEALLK
In short: (§1)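 Competition binding of test compounds against an immobilized aminopyrido-pyrimidine affinity matrix in mixed Molt4/Ramos lysate (1:2, 10 mg/mL protein). Incubation was 3 h in the cold with shaking; kinases captured on the beads were eluted, quantified by antibody dot blot with infrared detection, and IC50s were derived from dose-response curves.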

JAK3 = target: T2, JAK3 (Homo sapiens, UniProt P52333); test: Kinobeads assay with immunodetection, JAK3; details: for IC50: Kinobeads assay, mixed Molt4/Ramos lysate, read-out: Inhibition values (IC50) JAK3
T2 construct: endogenous in cells; host or cells: Molt4 (ATCC CRL-1582) and Ramos (ATCC CRL-1596) cells; mixed lysate 1:2
T2 sequence (P52333 1-1124): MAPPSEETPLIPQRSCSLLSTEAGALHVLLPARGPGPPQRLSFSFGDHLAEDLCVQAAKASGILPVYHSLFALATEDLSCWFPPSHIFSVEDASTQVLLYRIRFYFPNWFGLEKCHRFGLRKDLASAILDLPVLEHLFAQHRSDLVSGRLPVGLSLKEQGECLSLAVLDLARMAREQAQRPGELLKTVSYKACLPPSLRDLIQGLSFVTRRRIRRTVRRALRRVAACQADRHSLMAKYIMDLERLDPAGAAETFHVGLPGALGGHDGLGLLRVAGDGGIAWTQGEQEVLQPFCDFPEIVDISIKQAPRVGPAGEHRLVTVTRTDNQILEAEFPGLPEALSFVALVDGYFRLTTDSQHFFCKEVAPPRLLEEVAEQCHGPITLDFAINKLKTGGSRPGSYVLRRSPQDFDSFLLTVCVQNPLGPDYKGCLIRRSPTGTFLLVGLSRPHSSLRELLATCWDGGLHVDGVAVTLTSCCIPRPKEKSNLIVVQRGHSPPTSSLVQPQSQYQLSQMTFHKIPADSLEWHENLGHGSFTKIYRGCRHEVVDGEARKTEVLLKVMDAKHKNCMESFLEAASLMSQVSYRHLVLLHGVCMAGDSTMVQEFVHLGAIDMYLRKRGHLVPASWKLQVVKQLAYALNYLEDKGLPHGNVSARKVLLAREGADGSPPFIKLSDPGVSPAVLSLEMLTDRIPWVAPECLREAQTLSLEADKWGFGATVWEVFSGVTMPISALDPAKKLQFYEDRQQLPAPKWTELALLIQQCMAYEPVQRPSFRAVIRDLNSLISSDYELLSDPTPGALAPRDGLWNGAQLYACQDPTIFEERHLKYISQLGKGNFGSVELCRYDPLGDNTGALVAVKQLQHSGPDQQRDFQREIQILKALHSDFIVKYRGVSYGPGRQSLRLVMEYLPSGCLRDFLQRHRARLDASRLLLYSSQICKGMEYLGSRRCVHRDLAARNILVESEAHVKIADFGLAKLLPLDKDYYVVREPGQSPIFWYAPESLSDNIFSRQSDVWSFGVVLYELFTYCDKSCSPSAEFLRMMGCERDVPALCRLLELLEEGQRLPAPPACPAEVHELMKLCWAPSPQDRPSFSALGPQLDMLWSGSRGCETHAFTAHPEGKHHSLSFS
In short: as §1

TYK2 = target: T3, TYK2 (Homo sapiens, UniProt P29597); test: Kinobeads assay with immunodetection, TYK2; details: for IC50: Kinobeads assay, mixed Molt4/Ramos lysate, read-out: Inhibition values (IC50) Tyk2
T3 construct: endogenous in cells; host or cells: Molt4 (ATCC CRL-1582) and Ramos (ATCC CRL-1596) cells; mixed lysate 1:2
T3 sequence (P29597 whole entry): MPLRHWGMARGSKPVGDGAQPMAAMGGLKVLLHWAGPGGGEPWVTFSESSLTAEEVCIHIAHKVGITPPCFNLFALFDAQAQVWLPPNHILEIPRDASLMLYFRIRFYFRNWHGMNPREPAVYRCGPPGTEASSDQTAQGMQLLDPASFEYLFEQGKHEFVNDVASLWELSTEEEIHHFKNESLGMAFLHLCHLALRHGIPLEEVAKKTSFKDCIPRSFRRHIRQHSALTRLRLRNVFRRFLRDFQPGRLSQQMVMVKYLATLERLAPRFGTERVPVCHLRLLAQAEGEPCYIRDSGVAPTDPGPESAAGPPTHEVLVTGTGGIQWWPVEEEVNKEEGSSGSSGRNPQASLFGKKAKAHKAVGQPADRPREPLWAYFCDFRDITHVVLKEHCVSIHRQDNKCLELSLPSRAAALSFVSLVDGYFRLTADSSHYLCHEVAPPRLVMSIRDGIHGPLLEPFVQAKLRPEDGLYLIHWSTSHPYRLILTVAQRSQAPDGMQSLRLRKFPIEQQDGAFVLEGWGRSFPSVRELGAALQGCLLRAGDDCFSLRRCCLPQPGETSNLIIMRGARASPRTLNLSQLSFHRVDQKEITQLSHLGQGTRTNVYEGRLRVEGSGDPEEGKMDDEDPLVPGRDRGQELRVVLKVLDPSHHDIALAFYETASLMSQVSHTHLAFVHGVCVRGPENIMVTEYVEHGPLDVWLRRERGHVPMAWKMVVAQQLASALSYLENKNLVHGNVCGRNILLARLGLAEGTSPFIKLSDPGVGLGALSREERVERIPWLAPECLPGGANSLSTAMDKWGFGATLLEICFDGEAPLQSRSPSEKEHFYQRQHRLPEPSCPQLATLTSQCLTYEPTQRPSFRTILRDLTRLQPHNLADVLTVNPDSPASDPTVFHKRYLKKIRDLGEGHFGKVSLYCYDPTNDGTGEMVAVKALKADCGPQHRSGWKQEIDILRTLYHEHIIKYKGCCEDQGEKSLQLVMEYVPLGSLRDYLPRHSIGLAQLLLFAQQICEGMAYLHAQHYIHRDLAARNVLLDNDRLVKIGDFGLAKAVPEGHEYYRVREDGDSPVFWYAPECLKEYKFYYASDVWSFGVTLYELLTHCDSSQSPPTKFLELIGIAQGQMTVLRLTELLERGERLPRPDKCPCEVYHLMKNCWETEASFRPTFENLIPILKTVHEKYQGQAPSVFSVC
In short: as §1

JAK2 = target: T4, JAK2 (Homo sapiens, UniProt O60674); test: Kinobeads assay with immunodetection, JAK2; details: mixed Molt4/Ramos lysate, read-out: Inhibition values (IC50) JAK2
T4 construct: endogenous in cells; host or cells: Molt4 (ATCC CRL-1582) and Ramos (ATCC CRL-1596) cells; mixed lysate 1:2
T4 sequence (O60674 whole entry): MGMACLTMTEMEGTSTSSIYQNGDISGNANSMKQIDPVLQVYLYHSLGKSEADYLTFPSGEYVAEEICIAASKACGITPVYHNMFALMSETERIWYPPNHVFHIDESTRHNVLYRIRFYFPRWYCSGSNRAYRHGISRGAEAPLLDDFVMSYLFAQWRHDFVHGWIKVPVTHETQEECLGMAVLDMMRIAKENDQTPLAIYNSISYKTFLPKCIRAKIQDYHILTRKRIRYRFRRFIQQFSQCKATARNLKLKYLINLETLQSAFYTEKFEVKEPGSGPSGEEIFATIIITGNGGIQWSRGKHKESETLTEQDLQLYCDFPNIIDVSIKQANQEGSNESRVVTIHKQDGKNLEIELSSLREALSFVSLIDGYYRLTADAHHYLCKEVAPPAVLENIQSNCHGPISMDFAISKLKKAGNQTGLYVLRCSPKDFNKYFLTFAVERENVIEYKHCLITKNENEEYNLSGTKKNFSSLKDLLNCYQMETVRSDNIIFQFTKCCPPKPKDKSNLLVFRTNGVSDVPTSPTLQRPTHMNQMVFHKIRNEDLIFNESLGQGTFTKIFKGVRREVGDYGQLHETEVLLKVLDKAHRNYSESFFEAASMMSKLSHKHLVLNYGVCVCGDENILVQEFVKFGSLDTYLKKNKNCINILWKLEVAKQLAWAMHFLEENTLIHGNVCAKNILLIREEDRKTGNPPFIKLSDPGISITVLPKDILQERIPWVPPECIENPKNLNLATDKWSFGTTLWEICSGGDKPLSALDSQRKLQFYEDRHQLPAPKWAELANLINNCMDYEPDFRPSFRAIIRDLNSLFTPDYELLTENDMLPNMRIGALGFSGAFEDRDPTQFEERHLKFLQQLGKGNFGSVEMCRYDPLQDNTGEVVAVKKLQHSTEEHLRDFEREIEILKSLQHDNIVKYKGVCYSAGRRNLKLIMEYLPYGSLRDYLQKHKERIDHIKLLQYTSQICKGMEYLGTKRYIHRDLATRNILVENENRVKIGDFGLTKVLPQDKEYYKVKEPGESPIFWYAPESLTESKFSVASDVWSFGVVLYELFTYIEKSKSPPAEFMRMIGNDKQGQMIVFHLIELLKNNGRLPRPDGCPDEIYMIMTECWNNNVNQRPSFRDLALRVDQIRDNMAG
In short: as §1

IC50 (JAK1) [nM] | IC50 (JAK3) [nM] | IC50 (TYK2) [nM] | Selectivity ratio over JAK2, Tyk2 (TYK2) | IC50 (JAK2) [nM] | Selectivity ratio over JAK2, JAK1 (JAK1) | Selectivity ratio over JAK2, JAK3 (JAK3; JAK3 over JAK2) | Structure (SMILES)
100 to 1000 | 100 to 1000 | < 100 | Tyk2 = 53 | 1000 to 10000 |  |  | Cn1cc(Nc2ncc(F)c(NC[C@H]3CCCN3CCC#N)n2)cn1 [Example 112, (R)-3-(2-(((5-fluoro-2-((1-methyl-1H-pyrazol-4-yl)amino)pyrimidin-4-yl)amino)methyl)pyrrolidin-1-yl)propanenitrile]
< 100 | 100 to 1000 | < 100 | Tyk2 = 170 | 1000 to 10000 |  |  | Cn1cc(Nc2ncc(F)c(NC[C@H]3CCCN3C(=O)CC#N)n2)cn1 [Example 113, (R)-3-(2-(((5-fluoro-2-((1-methyl-1H-pyrazol-4-yl)amino)pyrimidin-4-yl)amino)methyl)pyrrolidin-1-yl)-3-oxopropanenitrile]
< 100 | 100 to 1000 | < 100 | Tyk2 = 103 | 1000 to 10000 |  |  | Cn1cc(Nc2ncc(F)c(NC[C@H]3CCCN3C(=O)CCC#N)n2)cn1 [Example 114, (R)-4-(2-(((5-fluoro-2-((1-methyl-1H-pyrazol-4-yl)amino)pyrimidin-4-yl)amino)methyl)pyrrolidin-1-yl)-4-oxobutanenitrile]
< 100 | < 100 | < 100 | Tyk2 = 68 | 100 to 1000 |  |  | Cn1cc(Nc2ncc(Cl)c(NC[C@H]3CCCN3C3CCS(=O)(=O)C3)n2)cn1 (stereo partly drawn) [Example 115, 3-((R)-2-(((5-chloro-2-((1-methyl-1H-pyrazol-4-yl)amino)pyrimidin-4-yl)amino)methyl)pyrrolidin-1-yl)tetrahydrothiophene 1,1-dioxide]
< 100 | < 100 | < 100 |  | 1000 to 10000 | JAK1 = 70 |  | Cc1cnc(Nc2cnn(CC(F)F)c2)nc1NC[C@H]1CCCN1CCS(C)(=O)=O [Example 116, (R)—N^2-(1-(2,2-difluoroethyl)-1H-pyrazol-4-yl)-5-methyl-N^4-((1-(2-(methylsulfonyl)ethyl)pyrrolidin-2-yl)methyl)pyrimidine-2,4-diamine]
< 100 | < 100 | < 100 | Tyk2 = 140 | 1000 to 10000 |  |  | Cc1cnc(Nc2cnn(CC(F)F)c2)nc1NC[C@H]1CCCN1CCC#N [Example 117, (R)-3-(2-(((2-((1-(2,2-difluoroethyl)-1H-pyrazol-4-yl)amino)-5-methylpyrimidin-4-yl)amino)methyl)pyrrolidin-1-yl)propanenitrile]
< 100 | 100 to 1000 | < 100 |  | 100 to 1000 | JAK1 = 69 |  | Cc1cnc(Nc2cnn(CC(F)F)c2)nc1NC[C@H]1CCCN1C(=O)CC#N [Example 118, (R)-3-(2-(((2-((1-(2,2-difluoroethyl)-1H-pyrazol-4-yl)amino)-5-methylpyrimidin-4-yl)amino)methyl)pyrrolidin-1-yl)-3-oxopropanenitrile]
< 100 | 1000 to 10000 | 100 to 1000 |  | 1000 to 10000 | JAK1 = 68 |  | Cn1cc(Nc2ncc(Cl)c(NC[C@@H]3CCCN3CCCS(C)(=O)=O)n2)cn1 [Example 119, (S)-5-chloro-N^2-(1-methyl-1H-pyrazol-4-yl)-N^4-((1-(3-(methylsulfonyl)propyl)pyrrolidin-2-yl)methyl)pyrimidine-2,4-diamine]
< 100 | 1000 to 10000 | 100 to 1000 |  | 1000 to 10000 | JAK1 = 81 |  | Cc1cnc(Nc2cnn(CC(F)F)c2)nc1NC[C@@H]1C[C@H](F)CN1CCS(C)(=O)=O [Example 120, N^2-(1-(2,2-difluoroethyl)-1H-pyrazol-4-yl)-N^4-(((2S,4S)-4-fluoro-1-(2-(methylsulfonyl)ethyl)pyrrolidin-2-yl)methyl)-5-methylpyrimidine-2,4-diamine]
< 100 | 100 to 1000 | < 100 |  | 1000 to 10000 | JAK1 = 56 |  | Cc1cnc(Nc2cnn(CC(F)F)c2)nc1NC[C@@H]1C[C@H](F)CN1CCC#N [Example 121, 3-((2S,4S)-2-(((2-((1-(2,2-difluoroethyl)-1H-pyrazol-4-yl)amino)-5-methylpyrimidin-4-yl)amino)methyl)-4-fluoropyrrolidin-1-yl)propanenitrile]
< 100 | 1000 to 10000 | 100 to 1000 |  | 1000 to 10000 | JAK1 = 194 |  | Cc1cnc(Nc2cnn(CC(F)F)c2)nc1NC[C@@H]1C[C@H](F)CN1C(=O)CCC#N [Example 122, 4-((2S,4S)-2-(((2-((1-(2,2-difluoroethyl)-1H-pyrazol-4-yl)amino)-5-methylpyrimidin-4-yl)amino)methyl)-4-fluoropyrrolidin-1-yl)-4-oxobutanenitrile]
< 100 | 100 to 1000 | < 100 |  | 1000 to 10000 | JAK1 = 182 |  | Cc1cnc(Nc2cnn(CC(F)F)c2)nc1NC[C@@H]1CCCN1CCS(C)(=O)=O [Example 123, (S)—N^2-(1-(2,2-difluoroethyl)-1H-pyrazol-4-yl)-5-methyl-N^4-((1-(2-(methylsulfonyl)ethyl)pyrrolidin-2-yl)methyl)pyrimidine-2,4-diamine]
< 100 | 100 to 1000 | < 100 |  | 1000 to 10000 | JAK1 = 101 |  | Cc1cnc(Nc2cnn(CC(F)F)c2)nc1NC[C@@H]1CCCN1C(=O)CC#N [Example 124, (S)-3-(2-(((2-((1-(2,2-difluoroethyl)-1H-pyrazol-4-yl)amino)-5-methylpyrimidin-4-yl)amino)methyl)pyrrolidin-1-yl)-3-oxopropanenitrile]
< 100 | 100 to 1000 | < 100 |  | 1000 to 10000 | JAK1 = 197 |  | Cc1cnc(Nc2cnn(CC(F)F)c2)nc1NC[C@@H]1CCCN1C(=O)CCC#N [Example 125, (S)-4-(2-(((2-((1-(2,2-difluoroethyl)-1H-pyrazol-4-yl)amino)-5-methylpyrimidin-4-yl)amino)methyl)pyrrolidin-1-yl)-4-oxobutanenitrile]
< 100 | 100 to 1000 | < 100 |  | 100 to 1000 |  | JAK3 = 46 | Cn1cc(Nc2ncc(Cl)c(NC[C@H]3CCCN3CCNS(C)(=O)=O)n2)cn1 [Example 126, (R)—N-(2-(2-(((5-chloro-2-((1-methyl-1H-pyrazol-4-yl)amino)pyrimidin-4-yl)amino)methyl)pyrrolidin-1-yl)ethyl)methanesulfonamide]
< 100 | 100 to 1000 | 100 to 1000 |  | 1000 to 10000 | JAK1 = 83 |  | Cc1cnc(Nc2cnn(CC(F)F)c2)nc1NC[C@H]1CCN(CCS(C)(=O)=O)C1 [Example 127, (R)—N^2-(1-(2,2-difluoroethyl)-1H-pyrazol-4-yl)-5-methyl-N^4-((1-(2-(methylsulfonyl)ethyl)pyrrolidin-3-yl)methyl)pyrimidine-2,4-diamine]
